For assay [1], the system named is IL-23-stimulated STAT-dependent luciferase reporter in Kit225 T cells. In words: Kit225 T cell assay, IL-23 stimulated STAT-dependent luciferase reporter. Format: cell-based, human. The method, boiled down: (§1)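 Stimulus was either 200 U/mL human recombinant IFNα or 20 ng/mL IL-23, applied for 5-6 h to reporter-bearing Kit225 T cells grown in RPMI/10% FBS. Luciferase expression then quantified by luminescent assay.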

Assay [2] relates to IFNα-stimulated STAT-dependent luciferase reporter in Kit225 T cells. Description: Kit225 T cell assay, IFNα stimulated STAT-dependent luciferase reporter. It counts as cell-based, human. The method, boiled down: as §1
Background: In a reporter assay the amount or activity of a reporter protein is the signal.

The mark [3] stands for this setting: Kit225 T cells, 20 ng/mL human recombinant IL-23, 5-6 hours, luciferase, read-out: IL23 (Kit225 T Cell Inhibition Data).
[4] abbreviates: Kit225 T cells, 200 U/mL human recombinant IFNα, 5-6 hours, luciferase, read-out: IFNα (Kit225 T Cell Inhibition Data).
[5] abbreviates: Homo sapiens, KIT225, read-out: IL23 (Kit225 T Cell Inhibition Data).
Setting [6] is: Homo sapiens, KIT225, read-out: IFNα (Kit225 T Cell Inhibition Data).

SMILES strings stand for the structures. Where two headings read alike, the source gives them in different places.

Consider `CNC(=O)c1cnc(Nc2cc(C)c(F)cn2)cc1Nc1cccc(C(=O)NCC(O)c2ccccc2)c1OC` (stereo not drawn) [Example 331], for which the IC50 in assay [1] (setting [3]) was 60 nM; in assay [2] (setting [4]) it was 40 nM.
In the case of `CNC(=O)c1cnc(Nc2cc(C)c(F)cn2)cc1Nc1cccc(C(=O)NCC2CCC2)c1OC` [Example 332], the IC50 in assay [1] (setting [3]) came to 380 nM; in assay [2] (setting [4]), 130 nM.
In the case of `CNC(=O)c1cnc(Nc2cc(C)c(F)cn2)cc1Nc1cccc(C(=O)NCCC(C)(C)O)c1OC` [Example 333], the IC50 in assay [1] (setting [3]) is 120 nM; in assay [2] (setting [4]), 90 nM.
Take `CNC(=O)c1cnc(Nc2cc(C)c(F)cn2)cc1Nc1cccc(C(=O)NCCO)c1OC` [Example 336]: the IC50 was determined as 400 nM in assay [1] (setting [3]) and 440 nM in assay [2] (setting [4]).
As for `CNC(=O)c1cnc(Nc2cc(C)c(F)cn2)cc1Nc1cccc(C(=O)NCCc2ccccc2)c1OC` [Example 337], the IC50 worked out at 110 nM in assay [1] (setting [3]) and 80 nM in assay [2] (setting [4]).
With `CNC(=O)c1cnc(Nc2cc(C)c(F)cn2)cc1Nc1cccc(C(=O)NCCC(C)C)c1OC` [Example 338], the IC50 in assay [1] (setting [3]) is 400 nM; in assay [2] (setting [4]) it was 110 nM.
Turning to `CCCNC(=O)c1cccc(Nc2cc(Nc3cc(C)c(F)cn3)ncc2C(=O)NC)c1OC` [Example 339], the IC50 in assay [1] (setting [3]) is 50 nM; in assay [2] (setting [4]) it was 30 nM.
With `CNC(=O)c1cnc(Nc2cc(C)c(F)cn2)cc1Nc1cccc(C(=O)NCC(C)(C)C)c1OC` [Example 340], the IC50 came out at 220 nM in assay [1] (setting [3]) and 120 nM in assay [2] (setting [4]).
As for `CNC(=O)c1cnc(Nc2cc(C)c(F)cn2)cc1Nc1cccc(C(=O)NCC2(O)CCC2)c1OC` [Example 342], the IC50 in assay [1] (setting [3]) amounted to 150 nM; in assay [2] (setting [4]), 130 nM.
For `CNC(=O)c1cnc(Nc2cc(C)c(F)cn2)cc1Nc1cccc(C(=O)NCC2(C)COC2)c1OC` [Example 343], the IC50 came out at 160 nM in assay [1] (setting [3]) and 140 nM in assay [2] (setting [4]).
With `CNC(=O)c1cnc(Nc2cc(C)c(F)cn2)cc1Nc1cccc(C(=O)NCC(F)(F)F)c1OC` [Example 346], the figures for the IC50 in assay [1] (setting [3]) and in assay [2] (setting [4]) were 40 nM and 20 nM, respectively.
Take `CNC(=O)c1cnc(Nc2cc(C)c(F)cn2)cc1Nc1cccc(C(=O)NCC(C)(C)O)c1OC` [Example 347]: the IC50 in assay [1] (setting [3]) was determined as 190 nM; in assay [2] (setting [4]), 70 nM.
Regarding `CNC(=O)c1cnc(Nc2cc(C)c(F)cn2)cc1Nc1cccc(C(=O)NCCCO)c1OC` [Example 348], the values for the IC50 in assay [1] (setting [3]) and in assay [2] (setting [4]) were 430 nM and 180 nM, respectively.
Consider `CNC(=O)c1cnc(Nc2cc(C)c(F)cn2)cc1Nc1cccc(C(=O)NCCCOC)c1OC` [Example 349], for which the IC50 in assay [1] (setting [3]) and in assay [2] (setting [4]) was 60 nM each time.
For the molecule `CNC(=O)c1cnc(Nc2cc(C)c(F)cn2)cc1Nc1cccc(C(=O)NCC(C)C)c1OC` [Example 350], the IC50 in assay [1] (setting [3]) and in assay [2] (setting [4]) was 80 nM each time.
As to `CNC(=O)c1cnc(Nc2cc(C)c(F)cn2)cc1Nc1cccc(C(=O)NCc2ccccc2)c1OC` [Example 351], the IC50 in assay [1] (setting [3]) is 60 nM; in assay [2] (setting [4]) it was 20 nM.
For `CNC(=O)c1cnc(Nc2cc(C)c(F)cn2)cc1Nc1cccc(C(=O)NCCOC)c1OC` [Example 352], in that order: 20 nM and 20 nM.
The corresponding values for `CNC(=O)c1cnc(Nc2cc(C)c(F)cn2)cc1Nc1cccc(C(=O)NCc2c[nH]c3ccccc23)c1OC` [Example 353] are 250 nM and 160 nM.
For `CNC(=O)c1cnc(Nc2cc(C)c(F)cn2)cc1Nc1cccc(C(=O)NCC2(C#N)CC2)c1OC` [Example 354], the IC50 in assay [1] (setting [3]) amounted to 150 nM; in assay [2] (setting [4]), 130 nM.
In the case of `CCNC(=O)c1cccc(Nc2cc(Nc3cc(C)c(F)cn3)ncc2C(=O)NC)c1OC` [Example 355], the IC50 in assay [1] (setting [3]) and in assay [2] (setting [4]) was 30 nM in each case.
For `CNC(=O)c1cnc(Nc2ccc(F)cn2)cc1Nc1cccc(C#N)c1OC` [Example 357], the IC50 in assay [1] (setting [3]) amounted to 120 nM; in assay [2] (setting [4]), 30 nM.
For the molecule `CNC(=O)c1cnc(Nc2cc(C)c(F)cn2)cc1Nc1cccc(-c2nnc(C)o2)c1OC` [Example 359], the IC50 turned out to be 20 nM in assay [1] (setting [3]) and 10 nM in assay [2] (setting [4]).
Take `CNC(=O)c1cnc(Nc2cc(C)c(F)cn2)cc1Nc1cccc(-c2nnc[nH]2)c1OC` [Example 360]: the figures for the IC50 in assay [1] (setting [3]) and in assay [2] (setting [4]) were 30 nM and 7.74 nM, respectively.
Take `CNC(=O)c1cnc(Nc2cc(C)nc(C)n2)cc1Nc1cccc(-c2nnc(C)o2)c1OC` [Example 361]: the figures for the IC50 in assay [1] (setting [3]) and in assay [2] (setting [4]) were 60 nM and 20 nM, respectively.
As for `CNC(=O)c1cnc(Nc2cc(C)nc(C)n2)cc1Nc1cccc(-c2nnc[nH]2)c1OC` [Example 362], the IC50 in assay [1] (setting [3]) was 20 nM; in assay [2] (setting [4]), 10 nM.
Take `CNC(=O)c1cnc(Nc2cc(C)c(F)cn2)cc1Nc1cccc(-c2nnc(C)[nH]2)c1OC` [Example 364, 6-((5-fluoro-4-methylpyridin-2-yl)amino)-4-((2-methoxy-3-(5-methyl-4H-1,2,4-triazol-3-yl)phenyl)amino)-N-methylnicotinamide]: the IC50 in assay [1] (setting [3]) and in assay [2] (setting [4]) was 10 nM each time.
For the molecule `CNC(=O)c1cnc(Nc2cc(C)nc(C)n2)cc1Nc1cccc(-c2nc(C)n(C)n2)c1OC` [Example 366], the IC50 stood at 20 nM in assay [1] (setting [3]) and 9.22 nM in assay [2] (setting [4]).
As for `CNC(=O)c1cnc(Nc2cc(C)nc(C)n2)cc1Nc1cccc(-c2nc(C)nn2C)c1OC` [Example 367], the IC50 is 20 nM in assay [1] (setting [3]) and 30 nM in assay [2] (setting [4]).
With `CNC(=O)c1cnc(Nc2cc(C)nc(C)n2)cc1Nc1cccc(-c2nc(C)n(CCF)n2)c1OC` [Example 368], the values for the IC50 in assay [1] (setting [3]) and in assay [2] (setting [4]) were 9.45 nM and 10 nM, respectively.
Take `CNC(=O)c1cnc(Nc2cc(C)nc(C)n2)cc1Nc1cccc(-c2nc(C)n(CC(F)(F)F)n2)c1OC` [Example 370]: the IC50 in assay [1] (setting [5]) and in assay [2] (setting [6]) was 30 nM each time.
For `CNC(=O)c1cnc(Nc2cc(C)c(F)cn2)cc1Nc1cccc(-c2ncn(C)n2)c1OC` [Example 371], the IC50 in assay [1] (setting [3]) came to 4.89 nM; in assay [2] (setting [4]), 3.99 nM.
On to `CNC(=O)c1cnc(Nc2cc(C)nc(C)n2)cc1Nc1cccc(-c2ncn(C)n2)c1OC` [Example 372], for which the IC50 in assay [1] (setting [3]) and in assay [2] (setting [4]) was 10 nM in each case.
Turning to `CNC(=O)c1cnc(Nc2ccc(F)cn2)cc1Nc1cccc(-c2ncn(C)n2)c1OC` [Example 373], the IC50 in assay [1] (setting [3]) worked out at 6.22 nM; in assay [2] (setting [4]), 8.34 nM.
In the case of `CNC(=O)c1cnc(Nc2ccccn2)cc1Nc1cccc(-c2ncn(C)n2)c1OC` [Example 374], the IC50 in assay [1] (setting [3]) was 8.36 nM; in assay [2] (setting [4]), 6.98 nM.
For `CNC(=O)c1cnc(Nc2ccc(C(F)(F)F)cn2)cc1Nc1cccc(-c2ncn(C)n2)c1OC` [Example 375], in that order: 20 nM and 9.47 nM.
In the case of `CNC(=O)c1cnc(Nc2ccc(C#N)cn2)cc1Nc1cccc(-c2ncn(C)n2)c1OC` [Example 376], the IC50 was determined as 9.35 nM in assay [1] (setting [3]) and 3.47 nM in assay [2] (setting [4]).
The corresponding values for `CNC(=O)c1cnc(Nc2cc(C)nc(C)n2)cc1Nc1cccc(-c2ncn(CCF)n2)c1OC` [Example 377] are 20 nM and 20 nM.
As to `CNC(=O)c1cnc(Nc2cc(C)nc(C)n2)cc1Nc1cccc(-c2ncn(CC(F)F)n2)c1OC` [Example 378], the IC50 in assay [1] (setting [3]) is 50 nM; in assay [2] (setting [4]), 10 nM.
In the case of `CNC(=O)c1cnc(Nc2cc(C)nc(C)n2)cc1Nc1cccc(-c2ncnn2CC(F)F)c1OC` [Example 379], the IC50 in assay [1] (setting [3]) came to 80 nM; in assay [2] (setting [4]), 30 nM.
For the molecule `CNC(=O)c1cnc(Nc2cc(C)nc(C)n2)cc1Nc1cccc(-c2ncn(CC(F)(F)F)n2)c1OC` [Example 380], the figures for the IC50 in assay [1] (setting [3]) and in assay [2] (setting [4]) were 40 nM and 30 nM, respectively.
For `CNC(=O)c1cnc(Nc2cc(C)nc(C)n2)cc1Nc1cccc(-c2ncnn2CC(F)(F)F)c1OC` [Example 381], in that order: 50 nM and 20 nM.
For `CNC(=O)c1cnc(Nc2cc(C)nc(C)n2)cc1Nc1cccc(-c2ncn(CC(C)(C)O)n2)c1OC` [Example 384], in that order: 120 nM and 170 nM.
For `CNC(=O)c1cnc(Nc2cc(C)c(F)cn2)cc1Nc1cccc(-c2ncnn2C)c1OC` [Example 385], the figures for the IC50 in assay [1] (setting [5]) and in assay [2] (setting [6]) were 70 nM and 20 nM, respectively.
Turning to `CNC(=O)c1cnc(Nc2cc(C)c(F)cn2)cc1Nc1cccc(-c2nc(C)nn2C)c1OC` [Example 386], the IC50 in assay [1] (setting [5]) was determined as 20 nM; in assay [2] (setting [6]) it was 10 nM.
Take `CNC(=O)c1cnc(Nc2cc(C)c(F)cn2)cc1Nc1cccc(-c2ncn(C)n2)c1OC(F)F` [Example 388]: the IC50 was determined as 50 nM in assay [1] (setting [3]) and 20 nM in assay [2] (setting [4]).
As to `CNC(=O)c1cnc(Nc2cc(C)c(F)cn2)cc1Nc1cccc(-c2nnn[nH]2)c1OC` [Example 390], the values for the IC50 in assay [1] (setting [3]) and in assay [2] (setting [4]) were 1030 nM and 330 nM, respectively.
Consider `CNC(=O)c1cnc(Nc2cc(C)c(F)cn2)cc1Nc1cccc(-c2ccnn2C)c1OC` [Example 392], for which the IC50 is 170 nM in assay [1] (setting [3]) and 70 nM in assay [2] (setting [4]).
Turning to `CNC(=O)c1cnc(Nc2cc(C)nc(C)n2)cc1Nc1cccc(-c2ccnn2C)c1OC` [Example 394], the IC50 in assay [1] (setting [3]) turned out to be 80 nM; in assay [2] (setting [4]) it was 30 nM.
The corresponding values for `[2H]C([2H])([2H])NC(=O)c1cnc(Nc2cc(C)nc(C)n2)cc1Nc1cccc(-c2cnn(C)c2)c1OC` [Example 397] are 60 nM and 8.77 nM.
For the molecule `[2H]C([2H])([2H])NC(=O)c1cnc(Nc2ccccn2)cc1Nc1cccc(-c2cnn(C)c2)c1OC` [Example 398], the IC50 in assay [1] (setting [3]) and in assay [2] (setting [4]) was 20 nM each time.
Take `[2H]C([2H])([2H])NC(=O)c1cnc(Nc2cc(C)c(F)cn2)cc1Nc1cccc(-c2cnn(C)c2)c1OC` [Example 399]: the IC50 in assay [1] (setting [3]) and in assay [2] (setting [4]) was 50 nM each time.

Source of the values: patent publication US9315494B2, “Alkyl-amide-substituted pyridyl compounds useful as modulators of IL-12, IL-23 and/or IFNα responses” (Bristol-Myers Squibb Company, priority 2012, dated 2016).
